Laboratory results: the supplement of paper PMC10307832

Experiments:
Test in all cases: relative viability (nuclei count vs DMSO), 5 days (fraction); higher = more cells survive
Omipalisib = compound: COc1ncc(-c2ccc3nccc(-c4ccnnc4)c3c2)cc1NS(=O)(=O)c1ccc(F)cc1F [Omipalisib]
In short: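 MetaXpress counted nuclei in 4× images of lung cancer cell lines that had been fixed, permeabilised and Hoechst-stained in one step. Before that, cells in 1536-well plates were kept overnight at 37 °C, pinned with five √10-spaced library-drug doses on vehicle-anchored plates, and cultured 5 days without medium change. Viability takes treated-well nuclei over vehicle-well nuclei and uses the median across plates. Plates were accepted only at control CV below 25% and at least one doubling.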

Omipalisib + Olaparib = compound: COc1ncc(-c2ccc3nccc(-c4ccnnc4)c3c2)cc1NS(=O)(=O)c1ccc(F)cc1F [Omipalisib] + O=C(c1cc(Cc2n[nH]c(=O)c3ccccc23)ccc1F)N1CCN(C(=O)C2CC2)CC1 [Olaparib] (partner 8 µM)
In short: (§1)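 Lung cancer cell lines were pin-tool dosed in 1536-well plates on the day after seeding, with either a lone drug or a fixed anchor-drug dose plus five library-drug doses (not always all listed) in √10 steps. Nuclei were counted on 4× images after 5 days. Relative viability is the ratio of treated-well to vehicle-well nuclei counts, with each value a median of duplicate plates.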

Omipalisib + Crizotinib = compound: COc1ncc(-c2ccc3nccc(-c4ccnnc4)c3c2)cc1NS(=O)(=O)c1ccc(F)cc1F [Omipalisib] + C[C@@H](Oc1cc(-c2cnn(C3CCNCC3)c2)cnc1N)c1c(Cl)ccc(F)c1Cl [Crizotinib] (partner 1 µM)
In short: as §1

Omipalisib + OSI-027 = compound: COc1ncc(-c2ccc3nccc(-c4ccnnc4)c3c2)cc1NS(=O)(=O)c1ccc(F)cc1F [Omipalisib] + COc1cccc2cc(-c3nc([C@H]4CC[C@H](C(=O)O)CC4)n4ncnc(N)c34)[nH]c12 [OSI-027] (partner 0.5 µM)
In short: as §1

Omipalisib + Luminespib = compound: COc1ncc(-c2ccc3nccc(-c4ccnnc4)c3c2)cc1NS(=O)(=O)c1ccc(F)cc1F [Omipalisib] + CCNC(=O)c1noc(-c2cc(C(C)C)c(O)cc2O)c1-c1ccc(CN2CCOCC2)cc1 [Luminespib] (partner 0.01 µM)
In short: as §1

Omipalisib + AZD7762 = compound: COc1ncc(-c2ccc3nccc(-c4ccnnc4)c3c2)cc1NS(=O)(=O)c1ccc(F)cc1F [Omipalisib] + NC(=O)Nc1cc(-c2cccc(F)c2)sc1C(=O)N[C@H]1CCCNC1 [AZD7762] (partner 0.2 µM)
In short: as §1

Cell Line	relative viability (Omipalisib; 0.0003 µM)	relative viability (Omipalisib; 0.003 µM)	relative viability (Omipalisib; 0.03 µM)	relative viability (Omipalisib + Olaparib; first compound 0.0003 µM)	relative viability (Omipalisib + Olaparib; first compound 0.003 µM)	relative viability (Omipalisib + Olaparib; first compound 0.03 µM)	relative viability (Omipalisib + Crizotinib; first compound 0.0003 µM)	relative viability (Omipalisib + Crizotinib; first compound 0.003 µM)	relative viability (Omipalisib + Crizotinib; first compound 0.03 µM)	relative viability (Omipalisib + OSI-027; first compound 0.0003 µM)	relative viability (Omipalisib + OSI-027; first compound 0.003 µM)	relative viability (Omipalisib + OSI-027; first compound 0.03 µM)	relative viability (Omipalisib + Luminespib; first compound 0.0003 µM)	relative viability (Omipalisib + Luminespib; first compound 0.003 µM)	relative viability (Omipalisib + Luminespib; first compound 0.03 µM)	relative viability (Omipalisib + AZD7762; first compound 0.0003 µM)	relative viability (Omipalisib + AZD7762; first compound 0.003 µM)	relative viability (Omipalisib + AZD7762; first compound 0.03 µM)
LC-2-ad	0.942	0.831	0.556	0.779	0.796	0.639	0.478	0.395	0.253	0.732	0.501	0.439	0.825	1.05	0.461	0.855	0.762	0.464
BEN	0.789	0.577	0.712	1.01	0.769	0.607	0.635	0.531	0.464	0.311	0.271	0.291	0.274	0.276	0.288	0.533	0.495	0.521
NCI-H1944	0.856	0.646	0.371	0.334	0.349	0.203	1	0.858	0.439	0.396	0.256	0.201	0.686	0.417	0.296	0.406	0.345	0.262
HCC-827	1.04	1.04	0.666	0.593	0.6	0.243	0.952	0.885	0.373	0.769	0.531	0.254	0.588	0.302	0.194	0.239	0.213	0.143
HCC-44	1.01	0.953	0.416	1.01	0.974	0.534	0.783	0.74	0.308	0.524	0.344	0.338	1.08	1.09	0.295	1	1.13	1.07
ChaGo-K-1	0.978	0.917	0.919	0.455	0.38	0.399	1.04	1.09	1.07	0.557	0.374	0.421	0.615	0.593	0.503	0.899	0.811	0.836
NCI-H647	0.949	0.696	0.42	0.582	0.426	0.233	0.979	0.921	0.443	0.547	0.408	0.264	0.233	0.16	0.13	0.403	0.322	0.215
HOP-62	1.03	1.06	0.753	0.264	0.548	0.486	0.817	1	0.693	0.93	0.56	0.576	0.961	1.05	0.883	0.532	0.55	0.438
NCI-H1666	1.01	0.818	0.651	0.687	0.749	0.686	0.974	0.743	0.494	0.758	0.621	0.609	0.983	0.955	0.729	0.852	0.81	0.552
SW 900	0.886	0.768	0.591	0.862	0.544	0.417				0.573	0.495	0.306	0.189	0.171	0.166	0.748	0.381	0.342
PC-3 [JPC-3]	1.01	1.07	0.912	1.05	1.16	0.915	0.922	1	0.889	0.735	0.569	0.551	0.677	0.587	0.485	0.73	0.685	0.424
NCI-H661	1	0.923	0.82	0.744	0.659	0.604	0.969	0.94	0.703	0.661	0.582	0.344	0.938	1.01	0.833			
NCI-H2085	0.987	1.01	0.495	0.829	0.713	0.303	0.789	0.886	0.407	0.776	0.349	0.315	0.386	0.352	0.291	1.06	0.84	0.385
NCI-H2126	0.972	0.687	0.495	0.888	0.725	0.412	0.965	0.866	0.559	0.71	0.488	0.411	0.825	0.567	0.338	1.02	0.795	0.657
NCI-H460	1	0.787	0.334	0.337	0.373	0.167	0.772	0.589	0.132	0.661	0.258	0.0847	0.0375	0.0227	0.0165	0.645	0.621	0.277
NCI-H596	0.944	0.673	0.421	0.639	0.604	0.402	0.93	0.561	0.361	0.726	0.352	0.309	0.98	0.657	0.285	0.966	0.546	0.479
LK-2	0.767	0.435	0.345	0.747	0.29	0.238	0.241	0.234	0.247	0.212	0.13	0.173	0.153	0.2	0.174	0.382	0.148	0.134
UMC-11	0.886	0.643	0.823	0.332	0.548	0.376	0.491	0.588	0.434	0.376	0.349	0.48	0.913	0.775	0.742			

Cell Line	relative viability (Omipalisib; 0.0003 µM)	relative viability (Omipalisib; 0.003 µM)	relative viability (Omipalisib; 0.03 µM)	relative viability (Omipalisib + Olaparib; first compound 0.0003 µM)	relative viability (Omipalisib + Olaparib; first compound 0.003 µM)	relative viability (Omipalisib + Olaparib; first compound 0.03 µM)	relative viability (Omipalisib + Crizotinib; first compound 0.0003 µM)	relative viability (Omipalisib + Crizotinib; first compound 0.003 µM)	relative viability (Omipalisib + Crizotinib; first compound 0.03 µM)	relative viability (Omipalisib + OSI-027; first compound 0.0003 µM)	relative viability (Omipalisib + OSI-027; first compound 0.003 µM)	relative viability (Omipalisib + OSI-027; first compound 0.03 µM)	relative viability (Omipalisib + Luminespib; first compound 0.0003 µM)	relative viability (Omipalisib + Luminespib; first compound 0.003 µM)	relative viability (Omipalisib + Luminespib; first compound 0.03 µM)	relative viability (Omipalisib + AZD7762; first compound 0.0003 µM)	relative viability (Omipalisib + AZD7762; first compound 0.003 µM)	relative viability (Omipalisib + AZD7762; first compound 0.03 µM)
RERF-LC-KJ	0.942	0.733	0.571	0.883	0.763	0.562	0.736	0.814	0.679	0.524	0.423	0.367	1.15	1.13	0.688	0.867	0.554	0.514
HCC-78	0.937	0.666	0.345	0.665	0.542	0.298	0.299	0.232	0.192	0.37	0.35	0.288				0.593	0.508	0.281
NCI-H1755	1.01	0.901	0.737	0.932	0.715	0.362	0.848	0.805	0.481	0.707	0.501	0.448	0.445	0.292	0.375	0.471	0.382	0.328
HCC-366	0.938	0.853	0.366	0.327	0.137	0.0831	0.365	0.0929	0.041	1.18	0.35	0.203				0.288	0.208	0.184
NCI-H2405	0.982	0.681	0.351	0.854	0.679	0.388	0.852	0.769	0.408	0.661	0.359	0.296	0.661	0.392	0.298	0.725	0.484	0.312
COR-L 105	0.937	0.976	0.535	0.596	0.708	0.569	0.799	0.779	0.558	0.767	0.549	0.328	0.703	0.796	0.591			
NCI-H1395	0.901	0.706	0.649	0.501	0.421	0.371				0.608	0.458	0.527	0.622	0.662	0.418	0.424	0.398	0.379
NCI-H1915	1.04	0.996	0.952	0.288	0.267	0.244	0.841	0.892	0.863	0.618	0.473	0.574	0.677	0.766	0.579	0.777	0.736	0.624
NCI-H1650	0.861	0.946	0.613	0.774	0.807	0.576	0.794	1.16	0.717	0.717	0.413	0.259	0.179	0.182	0.169			
SK-LU-1	0.914	0.778	0.569	0.455	0.304	0.366	0.91	0.712	0.515	0.373	0.207	0.183	0.206	0.199	0.19			
NCI-H520	0.787	0.588	0.252	0.295	0.294	0.139	0.636	0.622	0.193	0.235	0.214	0.203	0.208	0.232	0.212			
NCI-H1793	0.74	0.514	0.317	0.576	0.368	0.196				0.261	0.183	0.168	0.19	0.159	0.159	0.402	0.215	0.263
NCI-H2023	0.847	0.535	0.203	0.428	0.414	0.185	0.569	0.407	0.18	0.344	0.169	0.0988	0.619	0.44	0.155			
SW 1573	0.731	0.713	0.492	0.319	0.332	0.203	0.812	0.628	0.379	0.397	0.371	0.225	0.208	0.198	0.157			
SK-MES-1	0.927	0.607	0.452	0.674	0.52	0.26	0.954	0.656	0.611	0.508	0.252	0.29	0.635	0.421	0.269			
NCI-H2009	1.06	1.02	0.755	0.705	0.511	0.378	0.989	0.923	0.742	0.673	0.444	0.312	1.04	1.02	0.874			
COR-L23	1.01	1	0.631	0.34	0.301	0.265	0.794	0.667	0.292	0.786	0.59	0.483	0.616	0.608	0.277			
NCI-H2228	0.858	0.682	0.352	0.698	0.441	0.179	0.335	0.337	0.215	0.506	0.19	0.139	0.131	0.0865	0.11			
